Laboratory results as given in article PMC9329436, “Optimization of the 4-anilinoquin(az)oline scaffold as epidermal growth factor receptor (EGFR) inhibitors for chordoma utilizing a toxicology profiling assay platform” (Scientific Reports, 2022).
Where two headings read alike, the source gives them in different places.

How the values were obtained:
Type in all cases: biochemical
[1] = target: 320 wild-type protein kinases (Homo sapiens, UniProt Q8IU85); conditions: CAMK1D, singlicate
Text: (§1) Table S4. Profiling of two compounds at two concentrations against 320 wild-type protein kinases; singlicate measurement; Residual activities (% of control).

[2] = target: 320 wild-type protein kinases (Homo sapiens, UniProt P29597); conditions: kinase TYK2, singlicate
Chain of 320 wild-type protein kinases (Homo sapiens, UniProt P29597) (P29597 whole entry): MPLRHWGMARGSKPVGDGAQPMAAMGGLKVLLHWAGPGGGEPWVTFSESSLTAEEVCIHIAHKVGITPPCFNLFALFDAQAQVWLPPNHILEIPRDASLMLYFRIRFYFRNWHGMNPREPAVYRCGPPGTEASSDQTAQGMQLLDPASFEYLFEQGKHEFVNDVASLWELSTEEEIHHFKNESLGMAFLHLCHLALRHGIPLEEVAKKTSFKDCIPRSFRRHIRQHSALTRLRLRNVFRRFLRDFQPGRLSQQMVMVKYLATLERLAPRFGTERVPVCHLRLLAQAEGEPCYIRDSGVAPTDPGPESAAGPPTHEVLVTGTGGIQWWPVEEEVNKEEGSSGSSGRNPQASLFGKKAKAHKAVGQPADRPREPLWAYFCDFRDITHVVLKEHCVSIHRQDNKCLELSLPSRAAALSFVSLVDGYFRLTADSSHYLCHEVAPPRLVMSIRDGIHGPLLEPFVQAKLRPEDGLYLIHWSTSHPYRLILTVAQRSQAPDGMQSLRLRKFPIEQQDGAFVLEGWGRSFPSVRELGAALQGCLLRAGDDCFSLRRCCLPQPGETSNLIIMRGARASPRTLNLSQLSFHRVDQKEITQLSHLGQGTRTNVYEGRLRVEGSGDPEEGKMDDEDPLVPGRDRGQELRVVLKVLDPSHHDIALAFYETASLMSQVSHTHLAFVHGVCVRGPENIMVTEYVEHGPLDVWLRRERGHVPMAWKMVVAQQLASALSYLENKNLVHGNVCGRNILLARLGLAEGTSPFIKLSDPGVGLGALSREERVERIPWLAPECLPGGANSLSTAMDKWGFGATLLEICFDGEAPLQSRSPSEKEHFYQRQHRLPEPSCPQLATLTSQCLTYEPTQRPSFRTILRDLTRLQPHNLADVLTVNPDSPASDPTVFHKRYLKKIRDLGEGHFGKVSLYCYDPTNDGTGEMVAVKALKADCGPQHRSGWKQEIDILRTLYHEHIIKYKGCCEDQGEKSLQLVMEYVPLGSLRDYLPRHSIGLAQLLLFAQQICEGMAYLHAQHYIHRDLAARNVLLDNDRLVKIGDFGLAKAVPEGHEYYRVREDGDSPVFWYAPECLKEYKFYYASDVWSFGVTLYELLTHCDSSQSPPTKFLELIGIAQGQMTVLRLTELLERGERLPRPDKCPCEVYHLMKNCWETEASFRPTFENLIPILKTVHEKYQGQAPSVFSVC
Text: as §1

[3] = target: 320 wild-type protein kinases (Homo sapiens, UniProt P36894); conditions: BMPR1A, singlicate
Text: as §1

[4] = target: T1, 320 wild-type protein kinases (Homo sapiens, UniProt Q6XUX3); conditions: kinase RIPK5, singlicate
T1 sequence (Q6XUX3 1-929): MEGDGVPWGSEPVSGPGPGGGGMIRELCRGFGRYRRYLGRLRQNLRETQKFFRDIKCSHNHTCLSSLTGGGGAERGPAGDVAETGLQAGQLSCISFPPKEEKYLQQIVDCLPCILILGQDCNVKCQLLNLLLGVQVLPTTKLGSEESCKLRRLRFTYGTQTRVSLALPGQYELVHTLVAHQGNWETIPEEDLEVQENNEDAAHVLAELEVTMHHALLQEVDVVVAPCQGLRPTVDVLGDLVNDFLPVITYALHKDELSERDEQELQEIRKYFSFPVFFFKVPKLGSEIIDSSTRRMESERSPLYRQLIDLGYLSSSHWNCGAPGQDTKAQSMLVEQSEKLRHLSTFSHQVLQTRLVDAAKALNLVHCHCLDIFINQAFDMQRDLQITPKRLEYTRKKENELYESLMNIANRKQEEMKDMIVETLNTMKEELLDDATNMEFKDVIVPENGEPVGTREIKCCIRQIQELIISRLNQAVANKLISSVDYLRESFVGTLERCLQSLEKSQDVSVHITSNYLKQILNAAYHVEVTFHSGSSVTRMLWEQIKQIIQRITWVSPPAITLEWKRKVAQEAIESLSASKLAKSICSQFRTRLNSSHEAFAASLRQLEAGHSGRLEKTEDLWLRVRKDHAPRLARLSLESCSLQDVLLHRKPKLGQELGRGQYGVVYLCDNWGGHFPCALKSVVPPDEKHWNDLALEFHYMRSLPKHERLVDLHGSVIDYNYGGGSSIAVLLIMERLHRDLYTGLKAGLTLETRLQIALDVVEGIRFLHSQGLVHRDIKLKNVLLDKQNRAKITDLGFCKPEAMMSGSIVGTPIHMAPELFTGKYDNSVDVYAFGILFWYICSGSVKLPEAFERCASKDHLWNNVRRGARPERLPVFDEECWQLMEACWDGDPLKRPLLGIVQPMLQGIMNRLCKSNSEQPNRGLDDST
Text: as §1

[5] = target: 320 wild-type protein kinases (Homo sapiens, UniProt P06213); conditions: INS-R, singlicate
Text: as §1

[6] = target: 320 wild-type protein kinases (Homo sapiens, UniProt P29317); conditions: singlicate
Chain of 320 wild-type protein kinases (Homo sapiens, UniProt P29317) (P29317 24-976): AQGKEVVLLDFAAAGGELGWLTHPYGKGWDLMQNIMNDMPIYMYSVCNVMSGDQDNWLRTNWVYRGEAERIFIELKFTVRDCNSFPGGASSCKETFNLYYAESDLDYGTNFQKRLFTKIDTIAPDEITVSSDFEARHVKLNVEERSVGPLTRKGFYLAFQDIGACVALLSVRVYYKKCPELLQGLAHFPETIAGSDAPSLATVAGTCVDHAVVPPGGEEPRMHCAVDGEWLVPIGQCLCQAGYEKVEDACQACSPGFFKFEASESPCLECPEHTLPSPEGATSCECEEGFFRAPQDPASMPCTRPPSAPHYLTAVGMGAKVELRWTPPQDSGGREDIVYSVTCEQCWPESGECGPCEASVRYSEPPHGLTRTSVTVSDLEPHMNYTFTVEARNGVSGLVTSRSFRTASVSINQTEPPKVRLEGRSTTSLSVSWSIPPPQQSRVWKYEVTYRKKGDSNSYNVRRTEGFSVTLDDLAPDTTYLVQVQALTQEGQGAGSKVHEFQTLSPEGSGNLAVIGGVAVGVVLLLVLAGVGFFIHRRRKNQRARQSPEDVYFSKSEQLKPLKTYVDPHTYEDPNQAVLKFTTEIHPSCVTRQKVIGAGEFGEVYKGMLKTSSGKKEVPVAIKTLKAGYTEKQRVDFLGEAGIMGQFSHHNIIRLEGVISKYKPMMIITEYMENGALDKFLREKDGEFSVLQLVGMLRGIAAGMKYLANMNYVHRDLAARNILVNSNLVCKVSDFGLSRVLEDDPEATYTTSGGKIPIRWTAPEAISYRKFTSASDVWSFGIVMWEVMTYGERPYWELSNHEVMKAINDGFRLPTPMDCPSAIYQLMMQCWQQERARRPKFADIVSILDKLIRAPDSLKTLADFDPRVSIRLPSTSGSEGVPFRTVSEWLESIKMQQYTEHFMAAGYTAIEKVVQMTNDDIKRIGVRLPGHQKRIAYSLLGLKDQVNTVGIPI
Text: as §1

[7] = target: T2, 320 wild-type protein kinases (Homo sapiens, UniProt P54753); conditions: singlicate
T2 sequence (P54753 34-998): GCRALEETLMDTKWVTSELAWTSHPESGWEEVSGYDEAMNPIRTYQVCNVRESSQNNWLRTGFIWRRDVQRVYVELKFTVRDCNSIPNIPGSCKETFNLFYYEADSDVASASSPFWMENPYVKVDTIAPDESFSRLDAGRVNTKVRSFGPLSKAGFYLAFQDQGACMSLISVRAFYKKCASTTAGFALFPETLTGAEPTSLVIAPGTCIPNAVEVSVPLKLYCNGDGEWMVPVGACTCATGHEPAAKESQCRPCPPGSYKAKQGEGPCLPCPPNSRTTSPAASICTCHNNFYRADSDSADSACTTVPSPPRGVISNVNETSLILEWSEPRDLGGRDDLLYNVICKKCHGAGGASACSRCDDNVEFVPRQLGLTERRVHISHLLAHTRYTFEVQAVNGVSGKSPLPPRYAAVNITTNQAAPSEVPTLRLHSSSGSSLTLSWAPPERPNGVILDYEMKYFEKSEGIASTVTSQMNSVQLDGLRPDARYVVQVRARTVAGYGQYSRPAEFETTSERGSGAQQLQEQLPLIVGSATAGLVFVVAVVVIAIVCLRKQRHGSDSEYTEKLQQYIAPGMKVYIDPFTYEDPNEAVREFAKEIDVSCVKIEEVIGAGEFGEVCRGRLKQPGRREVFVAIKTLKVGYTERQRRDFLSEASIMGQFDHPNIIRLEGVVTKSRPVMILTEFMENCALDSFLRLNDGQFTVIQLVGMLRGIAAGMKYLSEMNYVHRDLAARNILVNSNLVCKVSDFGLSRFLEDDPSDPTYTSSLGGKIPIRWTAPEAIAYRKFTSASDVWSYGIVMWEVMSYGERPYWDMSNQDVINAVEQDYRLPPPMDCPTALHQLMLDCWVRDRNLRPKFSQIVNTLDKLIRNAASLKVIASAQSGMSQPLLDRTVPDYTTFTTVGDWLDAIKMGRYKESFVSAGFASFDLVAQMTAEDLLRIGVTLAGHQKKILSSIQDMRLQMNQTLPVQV
Text: as §1

[8] = target: 320 wild-type protein kinases (Homo sapiens, UniProt Q13705); conditions: ACV-R2B, singlicate
Chain of 320 wild-type protein kinases (Homo sapiens, UniProt Q13705) (Q13705 19-512): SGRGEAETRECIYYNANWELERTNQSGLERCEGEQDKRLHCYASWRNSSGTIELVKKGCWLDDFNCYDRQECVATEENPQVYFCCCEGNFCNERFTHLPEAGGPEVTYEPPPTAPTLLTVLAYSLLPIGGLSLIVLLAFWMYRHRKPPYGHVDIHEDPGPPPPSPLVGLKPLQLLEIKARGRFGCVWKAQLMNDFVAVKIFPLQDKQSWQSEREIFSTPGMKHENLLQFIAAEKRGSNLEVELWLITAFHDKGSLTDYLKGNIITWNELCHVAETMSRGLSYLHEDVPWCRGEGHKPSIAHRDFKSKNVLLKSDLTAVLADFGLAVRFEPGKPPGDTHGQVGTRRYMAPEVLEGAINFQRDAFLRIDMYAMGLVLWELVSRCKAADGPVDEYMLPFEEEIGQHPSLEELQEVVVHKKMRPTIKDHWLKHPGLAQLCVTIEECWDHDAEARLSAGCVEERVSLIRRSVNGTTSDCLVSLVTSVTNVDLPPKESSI
Text: as §1

[9] = target: 320 wild-type protein kinases (Homo sapiens, UniProt Q9Y463); conditions: DYRK1B, singlicate
Chain of 320 wild-type protein kinases (Homo sapiens, UniProt Q9Y463) (Q9Y463 whole entry): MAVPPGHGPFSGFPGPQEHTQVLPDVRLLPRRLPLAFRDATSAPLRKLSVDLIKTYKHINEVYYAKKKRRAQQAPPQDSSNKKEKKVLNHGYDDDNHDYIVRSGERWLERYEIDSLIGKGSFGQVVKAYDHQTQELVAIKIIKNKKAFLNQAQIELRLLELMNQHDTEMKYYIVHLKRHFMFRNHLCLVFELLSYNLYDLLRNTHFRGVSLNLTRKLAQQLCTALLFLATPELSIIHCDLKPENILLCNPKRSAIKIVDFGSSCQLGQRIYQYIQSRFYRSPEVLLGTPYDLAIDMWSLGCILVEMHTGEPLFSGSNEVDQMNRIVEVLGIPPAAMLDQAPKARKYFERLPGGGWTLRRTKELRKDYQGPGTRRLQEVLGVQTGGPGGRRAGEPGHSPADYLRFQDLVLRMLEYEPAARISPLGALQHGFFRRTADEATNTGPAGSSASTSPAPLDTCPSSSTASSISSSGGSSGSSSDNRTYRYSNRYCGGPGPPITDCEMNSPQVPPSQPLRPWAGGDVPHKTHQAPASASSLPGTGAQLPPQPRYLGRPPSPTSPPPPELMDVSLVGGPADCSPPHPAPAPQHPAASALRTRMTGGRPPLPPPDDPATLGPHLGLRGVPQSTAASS
Text: as §1

[10] = target: 320 wild-type protein kinases (Homo sapiens, UniProt Q13555); conditions: CAMK2G, singlicate
Chain of 320 wild-type protein kinases (Homo sapiens, UniProt Q13555) (Q13555 whole entry): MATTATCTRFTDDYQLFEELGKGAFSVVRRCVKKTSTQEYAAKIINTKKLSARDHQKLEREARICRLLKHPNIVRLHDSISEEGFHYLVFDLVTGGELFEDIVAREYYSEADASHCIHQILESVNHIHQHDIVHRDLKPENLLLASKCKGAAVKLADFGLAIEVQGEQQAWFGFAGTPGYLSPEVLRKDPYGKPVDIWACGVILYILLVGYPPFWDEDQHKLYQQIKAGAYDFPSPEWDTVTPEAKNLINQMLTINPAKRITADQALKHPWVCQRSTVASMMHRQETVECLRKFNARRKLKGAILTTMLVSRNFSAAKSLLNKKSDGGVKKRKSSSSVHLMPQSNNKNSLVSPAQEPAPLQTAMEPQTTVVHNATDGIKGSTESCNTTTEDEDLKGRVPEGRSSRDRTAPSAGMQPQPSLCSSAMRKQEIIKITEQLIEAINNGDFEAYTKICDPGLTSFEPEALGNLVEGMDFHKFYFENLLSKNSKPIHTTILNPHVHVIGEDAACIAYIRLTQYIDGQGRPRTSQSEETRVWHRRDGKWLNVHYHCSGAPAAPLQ
Text: as §1

[11] = target: 320 wild-type protein kinases (Homo sapiens, UniProt Q9H0K1); conditions: kinase SIK2, singlicate
Text: as §1

[12] = target: 320 wild-type protein kinases (Homo sapiens, UniProt P49674); conditions: CK1-epsilon, singlicate
Chain of 320 wild-type protein kinases (Homo sapiens, UniProt P49674) (P49674 whole entry): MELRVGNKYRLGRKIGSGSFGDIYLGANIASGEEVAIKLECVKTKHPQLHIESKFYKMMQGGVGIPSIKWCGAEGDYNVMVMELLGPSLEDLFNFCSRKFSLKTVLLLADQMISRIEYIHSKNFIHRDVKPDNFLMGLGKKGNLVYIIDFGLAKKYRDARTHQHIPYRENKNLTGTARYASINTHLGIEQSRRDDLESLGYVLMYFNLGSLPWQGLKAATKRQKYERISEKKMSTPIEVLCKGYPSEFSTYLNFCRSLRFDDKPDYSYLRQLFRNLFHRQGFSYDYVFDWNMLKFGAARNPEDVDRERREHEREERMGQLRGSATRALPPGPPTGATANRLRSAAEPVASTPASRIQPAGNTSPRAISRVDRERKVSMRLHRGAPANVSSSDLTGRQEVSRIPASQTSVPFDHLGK
Text: as §1

Chain of 320 wild-type protein kinases (Homo sapiens, UniProt Q8IU85) (Q8IU85 whole entry): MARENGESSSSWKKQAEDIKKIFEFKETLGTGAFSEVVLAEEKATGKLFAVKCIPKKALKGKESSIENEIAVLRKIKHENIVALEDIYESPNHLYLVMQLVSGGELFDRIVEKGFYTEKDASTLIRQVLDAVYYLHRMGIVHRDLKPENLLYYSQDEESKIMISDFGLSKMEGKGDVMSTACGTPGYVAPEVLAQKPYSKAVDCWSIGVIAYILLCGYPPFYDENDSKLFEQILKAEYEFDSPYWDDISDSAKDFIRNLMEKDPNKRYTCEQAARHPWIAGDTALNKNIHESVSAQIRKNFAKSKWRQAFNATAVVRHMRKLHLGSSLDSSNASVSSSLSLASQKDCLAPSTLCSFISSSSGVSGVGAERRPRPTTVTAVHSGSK

Compound	Residual activity ([1]; 1.0E-06 M)	Residual activity ([1]; 1.0E-07 M)	Residual activity, TYK2 ([2]; assay conc. 1.0E-06 M)	Residual activity, TYK2 ([2]; assay conc. 1.0E-07 M)	Residual activity ([3]; 1.0E-06 M)	Residual activity ([3]; 1.0E-07 M)	Residual activity, RIPK5 ([4]; assay conc. 1.0E-06 M)	Residual activity, RIPK5 ([4]; assay conc. 1.0E-07 M)	Residual activity ([5]; 1.0E-06 M)	Residual activity ([5]; 1.0E-07 M)	Residual activity ([6]; EPHA2, 1.0E-06 M)	Residual activity ([6]; EPHA2, 1.0E-07 M)	Residual activity ([7]; EPHB3, 1.0E-06 M)	Residual activity ([7]; EPHB3, 1.0E-07 M)	Residual activity ([8]; 1.0E-06 M)	Residual activity ([8]; 1.0E-07 M)	Residual activity ([9]; 1.0E-06 M)	Residual activity ([9]; 1.0E-07 M)	Residual activity ([10]; 1.0E-06 M)	Residual activity ([10]; 1.0E-07 M)	also measured
C#Cc1cc(Nc2ncnc3cc(I)ccc23)ccc1Cl [Compound 41]	77 % of control	86 % of control	94 % of control	101 % of control	96 % of control	109 % of control	85 % of control	96 % of control	96 % of control	105 % of control	91 % of control	90 % of control	100 % of control	110 % of control	84 % of control	91 % of control	90 % of control	116 % of control	93 % of control	118 % of control	Residual activity, SIK2 ([11]; assay conc. 1.0E-06 M): 83 % of control; Residual activity, SIK2 ([11]; assay conc. 1.0E-07 M): 92 % of control; Residual activity ([12]; 1.0E-06 M): 118 % of control; Residual activity ([12]; 1.0E-07 M): 124 % of control
C#Cc1cc(Nc2ncnc3cc(OC)c(OC)cc23)ccc1Cl [Compound 45]	84 % of control	99 % of control	114 % of control	96 % of control	110 % of control	102 % of control	71 % of control	84 % of control	82 % of control	97 % of control	81 % of control	87 % of control	113 % of control	99 % of control	85 % of control	83 % of control	111 % of control	105 % of control	91 % of control	116 % of control	Residual activity, SIK2 ([11]; assay conc. 1.0E-06 M): 67 % of control; Residual activity, SIK2 ([11]; assay conc. 1.0E-07 M): 97 % of control; Residual activity ([12]; 1.0E-06 M): 120 % of control; Residual activity ([12]; 1.0E-07 M): 124 % of control
